Reference: ChEMBL document CHEMBL1201862, “PubChem BioAssay data set” (2004)
Calls of active or inactive are those of the source.

Assays:
[1] = Luminescence-based cell-based high throughput dose response assay to identify activators of the DAF-12 from the parasite S. stercoralis (ssDAF-12).; format: functional
[2] = target: T1, Oxysterols receptor LXR-beta (Homo sapiens, UniProt P55055); test: LXR agonists, Gal4 luciferase reporter, dose response, counter-screen for ssDAF-12 agonist project, cell-based, luminescence, HEK293, S. stercoralis campaign (AID 720737); format: functional; settings: read-out: IC50 (the source's name)
T1 sequence (P55055 whole entry): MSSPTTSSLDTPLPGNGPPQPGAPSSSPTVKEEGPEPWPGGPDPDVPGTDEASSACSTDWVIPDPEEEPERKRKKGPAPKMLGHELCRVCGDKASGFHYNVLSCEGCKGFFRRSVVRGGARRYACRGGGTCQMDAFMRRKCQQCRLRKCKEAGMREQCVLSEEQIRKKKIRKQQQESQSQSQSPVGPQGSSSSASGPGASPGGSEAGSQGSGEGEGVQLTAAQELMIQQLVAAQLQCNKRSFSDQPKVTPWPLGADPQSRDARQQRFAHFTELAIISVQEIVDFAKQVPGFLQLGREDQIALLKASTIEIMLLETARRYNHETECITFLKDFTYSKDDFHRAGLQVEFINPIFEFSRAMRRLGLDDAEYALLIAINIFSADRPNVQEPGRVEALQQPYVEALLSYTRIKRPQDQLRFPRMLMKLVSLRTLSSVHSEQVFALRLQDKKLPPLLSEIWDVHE

BJ [3] = test: BJ-TERT fibroblast viability loss – cell-based, RAS-independent, luminescence, dose response (AID 1933); format: functional; settings: Homo sapiens
BJ [4] = test: growth inhibition of engineered Ras-driven BJ cells – cell-based, alamar blue fluorescence, cherrypicked samples, dose response (AID 2631); format: functional; settings: Homo sapiens;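 also: confirmatory dose-response assay in RAS-dependent BJ fibroblasts engineered with TERT, LT and ST, with cytotoxicity read by fluorescence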
[5] = HEK-293T viability loss after treatment – luminescence, T-cell screen hits, cytotoxicity control for TCR NF-kB inhibitor project, dose response (AID 489026); format: functional, cell-based;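 also: cells exposed to compound about 14 hours before the viability readout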
[6] = DRD fibroblast viability loss – cell-based, non-viral oncogenic, luminescence, dose response (AID 1934); format: functional; settings: Homo sapiens
Paired box protein Pax-8 = Paired box protein Pax-8 (Homo sapiens, UniProt Q06710); test: PAX8 transcriptional activity inhibition in RMG-I – RMG-I cells, luciferase, cherry-pick, dose response (AID 687027); format: functional, cell-based;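 also: luciferase reporter driven by Pax8 target thyroperoxidase promoter measured by SteadyGlo luminescence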
Sequence of Paired box protein Pax-8 (Q06710 whole entry): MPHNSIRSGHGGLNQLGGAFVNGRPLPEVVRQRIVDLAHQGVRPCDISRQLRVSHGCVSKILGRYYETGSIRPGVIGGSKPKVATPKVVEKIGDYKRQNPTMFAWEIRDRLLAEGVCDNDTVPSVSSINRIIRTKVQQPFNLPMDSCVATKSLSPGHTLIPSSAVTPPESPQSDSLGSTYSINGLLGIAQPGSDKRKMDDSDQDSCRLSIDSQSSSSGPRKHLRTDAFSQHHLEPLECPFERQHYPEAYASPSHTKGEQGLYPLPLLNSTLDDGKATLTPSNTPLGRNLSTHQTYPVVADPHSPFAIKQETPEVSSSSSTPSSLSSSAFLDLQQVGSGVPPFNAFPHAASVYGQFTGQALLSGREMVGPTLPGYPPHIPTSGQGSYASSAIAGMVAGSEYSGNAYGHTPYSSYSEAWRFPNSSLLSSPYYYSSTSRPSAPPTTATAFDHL

BJ [7] = test: cells; format: functional, cell-based; settings: Homo sapiens
[8] = Luminescence-based dose response cell-based high throughput screening assay for cytotoxic compounds using the IEC-6 intestinal epithelial cell line. [Related pubchem assays: 1858 (Summary AID.), 1825 (Counterscreen.), 1907 (Confirmation screen.)]; format: functional
[9] = Luminescence Cell-Based Dose Response to Identify Activators of 5'UTR Stem-Loop Driven Prion Protein mRNA Translation in H4-C Neuroglioblastoma Cells. [Related pubchem assays: 1829 (Project Summary), 1814 (Primary HTS)]; format: functional
[10] = Luminescence Cell-Based Dose Confirmation HTS to Identify Activators of 5'UTR Stem-Loop Driven Alpha-Synuclein mRNA Translation in H4 Neuroglioblastoma Cells. [Related pubchem assays: 1829 (Project Summary), 1814 (Primary HTS)]; format: functional
[11] = Luminescence Cell-Based Dose Confirmation to Identify Activators of 5'UTR Stem-Loop Driven Alpha-Synuclein mRNA Translation in H4 Neuroglioblastoma Cells. [Related pubchem assays: 1829 (Project Summary), 1814 (Primary HTS)]; format: functional
H4 = test: Luminescence Cell-Based Dose Response HTS to Identify Activators of 5'UTR Stem-Loop Driven Prion Protein mRNA Translation in H4 Neuroglioblastoma Cells. [Related pubchem assays: 1829 (Project Summary), 1814 (Primary HTS)]; format: functional; settings: Homo sapiens
[12] = Luminescence Cell-Based Dose Response to Identify Activators of Luciferase Translation or Activity in H4-C Neuroglioblastoma Cells. [Related pubchem assays: 1829 (Project Summary), 1814 (Primary HTS)]; format: functional
[13] = Luminescence Cell-Based Dose Response HTS to Identify Activators of Luciferase Translation or Activity in H4 […] Cells. [Related pubchem assays: 1829 (Project Summary), 1814 (Primary HTS)]; format: functional
[14] = Dd2 parasite growth inhibition in erythrocytes – SYBR Green, dry powder samples, set 9, dose response (AID 1159568); format: functional, cell-based
[15] = growth inhibition of yeast DHODH-expressing 3D7 parasites – SYBR Green, dry powder samples, dose response (AID 1159570); format: functional, cell-based;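 also: parasite growth measured after 72 hours of compound exposure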
[16] = growth inhibition of PfATP4-mutant resistant parasites – NITD609-resistant line, SYBR Green, dry powder, dose response (AID 1159571); format: functional, cell-based;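 also: parasites synchronized at ring stage by sorbitol before testing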
[17] = P. falciparum Dd2 growth inhibitors, dose response, SYBR Green, cherry-picked samples (AID 1159567); format: functional, cell-based
[18] = antimalarial activity against Dd2 parasites – SYBR Green fluorescence, erythrocytes, dry powder, set 2, dose response (AID 1159574); format: functional, cell-based
[19] = Dd2 malaria parasite growth inhibition potency – SYBR Green, dry powder samples, dose response (AID 1159566); format: functional, cell-based;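 also: potency for growth inhibition with lower SYBR green DNA signal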
Phospholipase D2 = Phospholipase D2 (Homo sapiens, UniProt O14939); test: PLD2 Cellular Concentration Response Study.; format: functional
Sequence of Phospholipase D2 (O14939 whole entry): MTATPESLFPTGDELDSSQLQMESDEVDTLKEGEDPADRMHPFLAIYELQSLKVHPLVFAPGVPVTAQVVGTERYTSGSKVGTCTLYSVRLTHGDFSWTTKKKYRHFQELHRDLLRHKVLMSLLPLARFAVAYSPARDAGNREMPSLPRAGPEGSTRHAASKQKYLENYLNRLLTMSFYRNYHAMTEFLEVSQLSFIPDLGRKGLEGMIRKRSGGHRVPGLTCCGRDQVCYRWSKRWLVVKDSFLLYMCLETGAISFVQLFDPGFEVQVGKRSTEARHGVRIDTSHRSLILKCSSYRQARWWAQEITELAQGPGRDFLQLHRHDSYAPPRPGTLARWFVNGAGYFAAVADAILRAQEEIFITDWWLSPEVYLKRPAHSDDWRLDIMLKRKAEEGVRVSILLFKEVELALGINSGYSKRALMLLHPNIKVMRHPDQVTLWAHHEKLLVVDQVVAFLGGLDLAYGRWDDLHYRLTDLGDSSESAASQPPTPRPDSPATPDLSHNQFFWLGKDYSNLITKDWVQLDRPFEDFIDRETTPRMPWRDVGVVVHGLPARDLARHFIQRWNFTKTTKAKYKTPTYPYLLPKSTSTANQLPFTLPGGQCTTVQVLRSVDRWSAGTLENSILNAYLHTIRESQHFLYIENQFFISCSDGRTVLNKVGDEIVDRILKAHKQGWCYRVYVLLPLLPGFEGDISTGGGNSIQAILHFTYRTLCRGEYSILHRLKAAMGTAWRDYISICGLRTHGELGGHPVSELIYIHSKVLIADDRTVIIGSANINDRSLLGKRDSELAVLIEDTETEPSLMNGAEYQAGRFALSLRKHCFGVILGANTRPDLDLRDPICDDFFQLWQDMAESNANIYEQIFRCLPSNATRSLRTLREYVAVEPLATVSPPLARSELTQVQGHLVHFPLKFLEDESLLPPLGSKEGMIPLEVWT

Phospholipase D1 = Phospholipase D1 (Homo sapiens, UniProt Q13393); test: PLD1 Cellular Concentration Response Study.; format: functional
Sequence of Phospholipase D1 (Q13393 whole entry): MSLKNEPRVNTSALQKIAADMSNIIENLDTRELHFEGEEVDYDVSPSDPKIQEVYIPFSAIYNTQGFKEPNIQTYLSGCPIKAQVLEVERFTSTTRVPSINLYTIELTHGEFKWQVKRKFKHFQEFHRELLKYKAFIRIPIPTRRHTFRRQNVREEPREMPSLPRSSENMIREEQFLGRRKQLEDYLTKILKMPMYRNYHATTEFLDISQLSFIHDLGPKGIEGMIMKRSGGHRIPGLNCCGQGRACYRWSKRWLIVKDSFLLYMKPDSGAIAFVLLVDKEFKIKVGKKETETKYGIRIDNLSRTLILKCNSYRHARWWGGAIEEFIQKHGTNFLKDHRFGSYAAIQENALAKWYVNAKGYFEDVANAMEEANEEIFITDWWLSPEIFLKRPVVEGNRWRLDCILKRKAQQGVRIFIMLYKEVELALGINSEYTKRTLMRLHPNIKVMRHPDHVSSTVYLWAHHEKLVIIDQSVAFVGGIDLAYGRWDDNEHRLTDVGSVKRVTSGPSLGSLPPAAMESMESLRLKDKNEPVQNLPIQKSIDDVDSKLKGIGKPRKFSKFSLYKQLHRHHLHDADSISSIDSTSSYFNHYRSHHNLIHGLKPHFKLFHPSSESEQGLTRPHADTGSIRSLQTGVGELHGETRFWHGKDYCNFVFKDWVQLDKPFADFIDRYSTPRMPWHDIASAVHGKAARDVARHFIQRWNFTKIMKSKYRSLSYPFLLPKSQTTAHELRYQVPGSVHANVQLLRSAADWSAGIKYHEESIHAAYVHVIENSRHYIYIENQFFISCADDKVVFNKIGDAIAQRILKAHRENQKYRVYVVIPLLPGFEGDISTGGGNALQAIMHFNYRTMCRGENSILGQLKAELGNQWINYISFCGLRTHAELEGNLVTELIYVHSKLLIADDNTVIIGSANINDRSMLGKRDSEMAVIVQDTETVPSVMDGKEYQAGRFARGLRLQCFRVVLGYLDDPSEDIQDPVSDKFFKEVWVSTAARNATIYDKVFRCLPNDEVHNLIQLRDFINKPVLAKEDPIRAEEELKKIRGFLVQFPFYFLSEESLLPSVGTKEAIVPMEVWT

[20] = IC50 of insulin release inhibition, rat insulinoma INS-1E line, 5 mM glucose, cell-based (AID 1117331); format: functional
[21] = Luminescence Cell-Based Dose Retest to Confirm Inhibitors of Cancer Stem Cells. [Related pubchem assays (depositor defined):AID2717, AID2721]; format: functional, Homo sapiens; settings: Homo sapiens
[22] = Potency on glucagon-like peptide 1 release, dose-response in NCI-H716 cell line, half maximal inhibitory concentration (AID 1117344); format: functional, cell-based
[23] = glucagon-like peptide-1 release potency in STC-1, concentration-response, half-maximal inhibitory concentration in the STC-1 line (AID 1117345); format: functional, cell-based

With `CC(=O)NC1(c2ccccc2)CCN(c2cc(C)nc(-c3ccccc3)n2)CC1` the IC50 [1] was > 67500 nM (inactive) and the EC50 [2] was > 67500 nM (inactive).

With `COc1ccc(/C=N/NC(=O)c2[nH]c3ccc(Br)cc3c2-c2ccccc2)cc1` the EC50 (BJ [3]) was < 120 nM (inconclusive), the EC50 (BJ [4]) was 88.6 nM (active) and the IC50 [5] was > 80000 nM (inactive). The EC50 [6] was 361 nM (active), the AC50 (Paired box protein Pax-8) was < 500 nM (active) and the EC50 (BJ [7]) was 34800 nM (inconclusive). The IC50 [8] was 296 nM (active).

With `COc1cccc(NC(=O)C(=O)N/N=C(\C)CC(=O)Nc2ccc(NC(C)=O)cc2)c1` the EC50 [9] was > 12000 nM (not active), the EC50 [10] was < 100 nM (active) and the EC50 [11] was 1250 nM (active). For the same compound, the EC50 (H4) was 25600 nM (active), the EC50 [12] was > 12000 nM (not active) and the EC50 [13] was 9310 nM (active).

In the case of `O=C(C1CCOCC1)N1C[C@@H]2[C@H](c3ccccc31)[C@H](CO)N2C(=O)Cc1ccccn1`, the AC50 [14] is reported as 22900 nM (active).

In the case of `O=C(c1ccccc1F)N1CC(=O)N2[C@H](CO)[C@H](c3ccc(-c4cccnc4)cc3)[C@H]2C1`, the AC50 [15] is reported as 197 nM (active), the AC50 [16] is reported as 148 nM (active) and the AC50 [17] is reported as < 300 nM (active). The AC50 [18] was 427 nM (active) and the AC50 [19] was 129 nM (active).

In the case of `O=C(NCCN1CCC2(CC1)C(=O)NCN2Cc1ccccc1Br)c1ccc2ccccc2c1`, the IC50 (Phospholipase D2) is reported as 160 nM (active) and the IC50 (Phospholipase D1) is reported as 1680 nM (active).

In the case of `O=C1Nc2ccc(Cl)cc2[C@@](C#CC2CC2)(C(F)(F)F)O1` [EFAVIRENZ], the IC50 [20] is reported as 3870 nM (active), the AC50 [21] is reported as 6380 nM (active) and the IC50 [22] is reported as 21200 nM (inactive). For the same compound, the IC50 [23] was 2480 nM (active).
